Experimental data published in PubChem BioAssay AID1963837 (Molecular Pharmacology Branch, DTP, NCI, 2024).

test system: 843126-344-R-J1-PDC complex spheroid viability; assay: Anticancer human tumor 843126-344-R-J1-PDC patient-derived melanoma cell line growth inhibition [POLQ]; settings: second compound 0.0316 µM; first compound 1 µM; active compounds read low
Method in brief: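 Complex spheroid viability model combining PDC tumour cells with endothelial (HUVEC) and MSC stromal cells. Novobiocin, ART-558 or RP6685 were tested singly and in combination with standard and investigational anticancer drugs. Each was titrated in half-log steps from near clinical Cmax, or from 10 microM where Cmax was unknown.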
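Further: spheroids exposed to drugs for seven days before readout.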

| Compound | viability, T/C [%] |
| --- | --- |
| C=CCn1c(=O)c2cnc(Nc3ccc(N4CCN(C)CC4)cc3)nc2n1-c1cccc(C(C)(C)O)n1 + Nc1ccc(C#CCN(C(=O)Cc2ncc(C(F)(F)F)cc2C(F)(F)F)c2ccc(F)cc2)nn1 | 81.9 |
| Nc1ccn(C2OC(CO)C(O)C2(F)F)c(=O)n1 (configuration not stated) + Cc1cccc(N(C)C(=O)C2C(O)CCN2c2nc(C)cc(C(F)(F)F)c2C#N)c1 | 45.5 |
| C#Cc1c(F)ccc2cc(O)cc(-c3ncc4c(N5CC6CCC(C5)N6)nc(OCC56CCCN5CC(F)C6)nc4c3F)c12 (configuration not stated) + Cc1cccc(N(C)C(=O)C2C(O)CCN2c2nc(C)cc(C(F)(F)F)c2C#N)c1 | 71.3 |

same assay, conditions: second compound 0.0316 µM; first compound 3.16 µM; active compounds read low

| Compound | viability, T/C [%] |
| --- | --- |
| CCCS(=O)(=O)Nc1ccc(F)c(C(=O)c2c[nH]c3ncc(-c4ccc(Cl)cc4)cc23)c1F + COC1C(OC(N)=O)C(O)C(Oc2ccc3c(O)c(NC(=O)c4ccc(O)c(CC=C(C)C)c4)c(=O)oc3c2C)OC1(C)C | 75.6 |
| COc1cc2cc(C(=O)CCC(=O)O)sc2cc1OC + Cc1cccc(N(C)C(=O)C2C(O)CCN2c2nc(C)cc(C(F)(F)F)c2C#N)c1 | 96.4 |
| Nc1ccn(C2OC(CO)C(O)C2(F)F)c(=O)n1 (configuration not stated) + Cc1cccc(N(C)C(=O)C2C(O)CCN2c2nc(C)cc(C(F)(F)F)c2C#N)c1 | 42.4 |
| C#Cc1c(F)ccc2cc(O)cc(-c3ncc4c(N5CC6CCC(C5)N6)nc(OCC56CCCN5CC(F)C6)nc4c3F)c12 (configuration not stated) + Cc1cccc(N(C)C(=O)C2C(O)CCN2c2nc(C)cc(C(F)(F)F)c2C#N)c1 | 95.8 |

same assay, conditions: second compound 0.0316 µM; first compound 10 µM; active compounds read low

| Compound | viability, T/C [%] |
| --- | --- |
| CCCS(=O)(=O)Nc1ccc(F)c(C(=O)c2c[nH]c3ncc(-c4ccc(Cl)cc4)cc23)c1F + COC1C(OC(N)=O)C(O)C(Oc2ccc3c(O)c(NC(=O)c4ccc(O)c(CC=C(C)C)c4)c(=O)oc3c2C)OC1(C)C | 60 |
| COc1cc2cc(C(=O)CCC(=O)O)sc2cc1OC + Cc1cccc(N(C)C(=O)C2C(O)CCN2c2nc(C)cc(C(F)(F)F)c2C#N)c1 | 92.4 |
| Nc1ccn(C2OC(CO)C(O)C2(F)F)c(=O)n1 (configuration not stated) + Cc1cccc(N(C)C(=O)C2C(O)CCN2c2nc(C)cc(C(F)(F)F)c2C#N)c1 | 43 |
| C#Cc1c(F)ccc2cc(O)cc(-c3ncc4c(N5CC6CCC(C5)N6)nc(OCC56CCCN5CC(F)C6)nc4c3F)c12 (configuration not stated) + Cc1cccc(N(C)C(=O)C2C(O)CCN2c2nc(C)cc(C(F)(F)F)c2C#N)c1 | 74 |

same assay, conditions: second compound 0.1 µM; first compound 0.00316 µM; active compounds read low

| Compound | viability, T/C [%] |
| --- | --- |
| CCc1c2c(nc3ccc(O)cc13)-c1cc3c(c(=O)n1C2)COC(=O)[C@]3(O)CC + Nc1ccc(C#CCN(C(=O)Cc2ncc(C(F)(F)F)cc2C(F)(F)F)c2ccc(F)cc2)nn1 | 64.3 |
| CCc1c2c(nc3ccc(O)cc13)-c1cc3c(c(=O)n1C2)COC(=O)[C@]3(O)CC + Cc1cccc(N(C)C(=O)C2C(O)CCN2c2nc(C)cc(C(F)(F)F)c2C#N)c1 | 72.8 |
| C=CCn1c(=O)c2cnc(Nc3ccc(N4CCN(C)CC4)cc3)nc2n1-c1cccc(C(C)(C)O)n1 + Nc1ccc(C#CCN(C(=O)Cc2ncc(C(F)(F)F)cc2C(F)(F)F)c2ccc(F)cc2)nn1 | 91.9 |

same assay, conditions: second compound 0.1 µM; first compound 0.01 µM; active compounds read low

| Compound | viability, T/C [%] |
| --- | --- |
| CCc1c2c(nc3ccc(O)cc13)-c1cc3c(c(=O)n1C2)COC(=O)[C@]3(O)CC + Nc1ccc(C#CCN(C(=O)Cc2ncc(C(F)(F)F)cc2C(F)(F)F)c2ccc(F)cc2)nn1 | 47.4 |
| CCc1c2c(nc3ccc(O)cc13)-c1cc3c(c(=O)n1C2)COC(=O)[C@]3(O)CC + Cc1cccc(N(C)C(=O)C2C(O)CCN2c2nc(C)cc(C(F)(F)F)c2C#N)c1 | 52.8 |
| C=CCn1c(=O)c2cnc(Nc3ccc(N4CCN(C)CC4)cc3)nc2n1-c1cccc(C(C)(C)O)n1 + Nc1ccc(C#CCN(C(=O)Cc2ncc(C(F)(F)F)cc2C(F)(F)F)c2ccc(F)cc2)nn1 | 92.1 |

same assay, conditions: second compound 0.1 µM; first compound 0.0316 µM; active compounds read low

| Compound | viability, T/C [%] |
| --- | --- |
| CCc1c2c(nc3ccc(O)cc13)-c1cc3c(c(=O)n1C2)COC(=O)[C@]3(O)CC + Nc1ccc(C#CCN(C(=O)Cc2ncc(C(F)(F)F)cc2C(F)(F)F)c2ccc(F)cc2)nn1 | 59 |
| CCc1c2c(nc3ccc(O)cc13)-c1cc3c(c(=O)n1C2)COC(=O)[C@]3(O)CC + Cc1cccc(N(C)C(=O)C2C(O)CCN2c2nc(C)cc(C(F)(F)F)c2C#N)c1 | 60.6 |
| CCCS(=O)(=O)Nc1ccc(F)c(C(=O)c2c[nH]c3ncc(-c4ccc(Cl)cc4)cc23)c1F + COC1C(OC(N)=O)C(O)C(Oc2ccc3c(O)c(NC(=O)c4ccc(O)c(CC=C(C)C)c4)c(=O)oc3c2C)OC1(C)C | 77.5 |
| COc1cc2cc(C(=O)CCC(=O)O)sc2cc1OC + Cc1cccc(N(C)C(=O)C2C(O)CCN2c2nc(C)cc(C(F)(F)F)c2C#N)c1 | 91.1 |
| C=CCn1c(=O)c2cnc(Nc3ccc(N4CCN(C)CC4)cc3)nc2n1-c1cccc(C(C)(C)O)n1 + Nc1ccc(C#CCN(C(=O)Cc2ncc(C(F)(F)F)cc2C(F)(F)F)c2ccc(F)cc2)nn1 | 104 |
| Nc1ccn(C2OC(CO)C(O)C2(F)F)c(=O)n1 (configuration not stated) + Cc1cccc(N(C)C(=O)C2C(O)CCN2c2nc(C)cc(C(F)(F)F)c2C#N)c1 | 48.9 |
| C#Cc1c(F)ccc2cc(O)cc(-c3ncc4c(N5CC6CCC(C5)N6)nc(OCC56CCCN5CC(F)C6)nc4c3F)c12 (configuration not stated) + Cc1cccc(N(C)C(=O)C2C(O)CCN2c2nc(C)cc(C(F)(F)F)c2C#N)c1 | 103 |

same assay, conditions: second compound 0.1 µM; first compound 0.1 µM; active compounds read low

| Compound | viability, T/C [%] |
| --- | --- |
| CCc1c2c(nc3ccc(O)cc13)-c1cc3c(c(=O)n1C2)COC(=O)[C@]3(O)CC + Nc1ccc(C#CCN(C(=O)Cc2ncc(C(F)(F)F)cc2C(F)(F)F)c2ccc(F)cc2)nn1 | 65.8 |
| CCc1c2c(nc3ccc(O)cc13)-c1cc3c(c(=O)n1C2)COC(=O)[C@]3(O)CC + Cc1cccc(N(C)C(=O)C2C(O)CCN2c2nc(C)cc(C(F)(F)F)c2C#N)c1 | 58.8 |
| CCCS(=O)(=O)Nc1ccc(F)c(C(=O)c2c[nH]c3ncc(-c4ccc(Cl)cc4)cc23)c1F + COC1C(OC(N)=O)C(O)C(Oc2ccc3c(O)c(NC(=O)c4ccc(O)c(CC=C(C)C)c4)c(=O)oc3c2C)OC1(C)C | 81.7 |
| COc1cc2cc(C(=O)CCC(=O)O)sc2cc1OC + Cc1cccc(N(C)C(=O)C2C(O)CCN2c2nc(C)cc(C(F)(F)F)c2C#N)c1 | 91.4 |
| C=CCn1c(=O)c2cnc(Nc3ccc(N4CCN(C)CC4)cc3)nc2n1-c1cccc(C(C)(C)O)n1 + Nc1ccc(C#CCN(C(=O)Cc2ncc(C(F)(F)F)cc2C(F)(F)F)c2ccc(F)cc2)nn1 | 85.9 |
| Nc1ccn(C2OC(CO)C(O)C2(F)F)c(=O)n1 (configuration not stated) + Cc1cccc(N(C)C(=O)C2C(O)CCN2c2nc(C)cc(C(F)(F)F)c2C#N)c1 | 44 |
| C#Cc1c(F)ccc2cc(O)cc(-c3ncc4c(N5CC6CCC(C5)N6)nc(OCC56CCCN5CC(F)C6)nc4c3F)c12 (configuration not stated) + Cc1cccc(N(C)C(=O)C2C(O)CCN2c2nc(C)cc(C(F)(F)F)c2C#N)c1 | 98.6 |

same assay, conditions: second compound 0.1 µM; first compound 0.316 µM; active compounds read low

| Compound | viability, T/C [%] |
| --- | --- |
| CCc1c2c(nc3ccc(O)cc13)-c1cc3c(c(=O)n1C2)COC(=O)[C@]3(O)CC + Nc1ccc(C#CCN(C(=O)Cc2ncc(C(F)(F)F)cc2C(F)(F)F)c2ccc(F)cc2)nn1 | 65 |
| CCc1c2c(nc3ccc(O)cc13)-c1cc3c(c(=O)n1C2)COC(=O)[C@]3(O)CC + Cc1cccc(N(C)C(=O)C2C(O)CCN2c2nc(C)cc(C(F)(F)F)c2C#N)c1 | 60.8 |
| CCCS(=O)(=O)Nc1ccc(F)c(C(=O)c2c[nH]c3ncc(-c4ccc(Cl)cc4)cc23)c1F + COC1C(OC(N)=O)C(O)C(Oc2ccc3c(O)c(NC(=O)c4ccc(O)c(CC=C(C)C)c4)c(=O)oc3c2C)OC1(C)C | 84.5 |
| COc1cc2cc(C(=O)CCC(=O)O)sc2cc1OC + Cc1cccc(N(C)C(=O)C2C(O)CCN2c2nc(C)cc(C(F)(F)F)c2C#N)c1 | 84.9 |
| C=CCn1c(=O)c2cnc(Nc3ccc(N4CCN(C)CC4)cc3)nc2n1-c1cccc(C(C)(C)O)n1 + Nc1ccc(C#CCN(C(=O)Cc2ncc(C(F)(F)F)cc2C(F)(F)F)c2ccc(F)cc2)nn1 | 86.5 |
| Nc1ccn(C2OC(CO)C(O)C2(F)F)c(=O)n1 (configuration not stated) + Cc1cccc(N(C)C(=O)C2C(O)CCN2c2nc(C)cc(C(F)(F)F)c2C#N)c1 | 40.9 |
